{"source": "patent US6096512A", "about": "“Cloned DNA encoding a UDP-GalNAc: Polypeptide, N-acetylgalactosaminyltransferase” (Pharmacia & Upjohn Company, priority 1997, dated 2000)", "key": {"[1]": {"system": "GalNAcTs (cloned soluble GalNAc-transferase)", "assay": "Transfer of N-acetylgalactosamine to synthetic acceptor peptides by soluble GalNAc-transferase, kinetic parameters", "conditions": "read-out: Km for UDP-GalNAc"}, "[2]": {"target": "T1, bovine colostrum GalNAc-transferase (Bos taurus, UniProt Q07537)", "T1 sequence (Q07537 41-559)": "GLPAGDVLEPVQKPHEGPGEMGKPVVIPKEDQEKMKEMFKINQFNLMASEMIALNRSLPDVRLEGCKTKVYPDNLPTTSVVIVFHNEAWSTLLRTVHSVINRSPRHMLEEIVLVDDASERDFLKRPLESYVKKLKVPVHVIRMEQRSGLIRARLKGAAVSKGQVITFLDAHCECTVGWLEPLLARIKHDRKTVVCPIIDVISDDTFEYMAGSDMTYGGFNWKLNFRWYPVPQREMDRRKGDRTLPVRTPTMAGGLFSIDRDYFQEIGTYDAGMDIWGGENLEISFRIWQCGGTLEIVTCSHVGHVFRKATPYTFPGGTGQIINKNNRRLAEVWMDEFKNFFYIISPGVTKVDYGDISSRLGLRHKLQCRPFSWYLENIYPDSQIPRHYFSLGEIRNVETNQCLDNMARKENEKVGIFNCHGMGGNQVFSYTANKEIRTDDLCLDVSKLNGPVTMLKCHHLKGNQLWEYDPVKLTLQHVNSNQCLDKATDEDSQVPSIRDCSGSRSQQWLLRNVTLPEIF", "assay": "Determination of kinetic parameters for acceptor peptides", "type": "biochemical", "excerpt": "(§1) The t-Boc-amino acids and the PAM resin solid supports are supplied by ABI. The completed peptides are removed from the supporting resin, concurrently with the side chain-protecting groups, by a standard HF cleavage procedure using anisole as a cation scavenger (10% v/v). The crude peptides are purified by preparative reverse phase chromatography on a C18 Vydac column (2.5×30 cm) using a water/acetonitrile gradient, each phase containing 0.1% TFA.\nThe transfer of N-acetylgalactosamine to peptide acceptors is assayed by two different assays. […] For the determination of kinetic parameters the reaction mixture contains 50 mM Imidazole, pH 7.2, 10 mM MnCl2, 0.5% Triton X-100, 150 μM UDP-GalNAc, approximately 120,000 cpm of UDP-[1-^3 H]-GalNAc, varying concentrations of acceptor (see individual experiments) and approximately 5 mU of enzyme in a final volume of 40 μl; standard incubation time is 20 minutes. The reaction is terminated by placing the samples in a boiling water bath for 1.5 minutes. The reaction product (glycosylated peptide) is separated from unreacted UDP-GalNAc by chromatography on Dowex-2 columns (0.5 ml bed volume) equilibrated in water; the run-through fraction (2.5 ml) containing the glycosylated peptide is collected, supplemented with scintillation fluid and counted for radioactivity. […]"}, "[3]": {"target": "T1, bovine colostrum GalNAc-transferase", "assay": "Transfer of N-acetylgalactosamine to protein acceptors by bovine colostrum GalNAc-transferase", "type": "biochemical", "conditions": "for acceptor activity in words: native or reduced and carboxymethylated", "protocol": "(§2) The standard assay for UDP-GalNAc:polypeptide, N-acetylgalactosaminyltransferase activity during purification contained the following components in a final volume of 80 μl: 50 mM Imidazole pH 7.2, 10 mM MnCl2, 0.5% Triton X-100, 15 μM UDP-GalNAc, UDP[1-^3 H-] GalNAc (27,000 cpm/assay), 0.15 mg/ml apomucin and varying amounts of enzyme (see individual experiments). The reaction mixture is incubated at 37° C. for 5-10 minutes (see individual experiments) and the reaction product is TCA precipitated and radioactivity measured as described. Assays for activity in lysates from Spodoptera frugiperda cell line 9 (hereinafter referred to as Sf9 cells) are carried out as described by Thomsen et al., (1990).\nThe above conclusions and the predictions of the specificity algorithm are validated experimentally by studying the ability of bovine colostrum GalNAc-transferase to transfer N-acetylgalactosamine to a variety of acceptors, both native proteins and synthetic acceptor peptides. The transfer of N-acetylgalactosamine to protein acceptors is assayed as described by Elhammer and Kornfeld, 1986, with minor modifications. The concentration of UDP-GalNAc is saturating in all assays; a Km of 8 μM is reported for bovine colostrum GalNAc-transferase (Elhammer and Kornfeld, 1986).\nThe transfer of N-acetylgalactosamine to protein acceptors was assayed\nunder standard conditions (see Material and Methods). The acceptor\nconcentration was 65 μM, the enzyme concentration approximately\n65 mU/ml and assay time was 60 minutes. The transfer to both native and\nreduced-carboxymethylated acceptors was assayed."}, "[4]": {"system": "GalNAc-transferase activity in Sf9 cells", "assay": "Expression of baculovirus isolates of the GalNAc-transferase in Sf9 cells, GalNAcT activity", "type": "cell-based, Spodoptera frugiperda", "protocol": "as §2\nThe putative GalNAcT coding region, pCR1000-91B, is digested with SstII and HindIII (both enzymes cut only in pCR1000 sequences that flank the insert; FIG. 2C) and these sites are blunted using T4 DNA polymerase so that it can be cloned into a baculovirus expression vector. BamHI linkers are then ligated onto the blunted ends and the resulting sample is ligated into the BamHI site of the baculovirus expression vector pAC373 (Summers and Smith, 1986). The resulting isolates are screened for proper orientation of the GalNAcT open reading frame with respect to the baculovirus polyhedron promoter, to yield pAC373-GalNAcT. […]"}, "[5]": {"target": "T1, bovine colostrum GalNAc-transferase", "assay": "Comparison of different synthetic peptides as acceptors (Biogel P-2 separation)", "type": "biochemical", "excerpt": "as §1\nThe transfer of N-acetylgalactosamine to peptide acceptors is assayed by two different assays. […] For the determination of kinetic parameters the reaction mixture contains 50 mM Imidazole, pH 7.2, 10 mM MnCl2, 0.5% Triton X-100, 150 μM UDP-GalNAc, approximately 120,000 cpm of UDP-[1-^3 H]-GalNAc, varying concentrations of acceptor (see individual experiments) and approximately 5 mU of enzyme in a final volume of 40 μl; standard incubation time is 20 minutes. The reaction is terminated by placing the samples in a boiling water bath for 1.5 minutes. The reaction product (glycosylated peptide) is separated from unreacted UDP-GalNAc by chromatography on Dowex-2 columns (0.5 ml bed volume) equilibrated in water; the run-through fraction (2.5 ml) containing the glycosylated peptide is collected, supplemented with scintillation fluid and counted for radioactivity. For the determination of the low levels of transfer to serine, the assay conditions are as follows: 50 mM Imidazole, pH 7.2, 10 mM MnCl2, 0.5% Triton X-100, 150 μM UDP-GalNAc, approximately 260,000 cpm UDP-[^3 H]-GalNAc and 3.2 mM acceptor peptide (the concentration of RSPPP is 3.7 mM). […] Following incubation, the enzyme is inactivated by placing the samples on a boiling water bath for 1.5 minutes. The samples are then allowed to cool and the reaction products are separated from unreacted UDP-GalNAc and free GalNAc by chromatography on a Biogel P-2 column (1×50 cm) equilibrated in 7% isopropanol; thirty 1.3 ml fractions are collected.\nAssays were done as described in Materials and Methods. The products\nwere separated by Biogel P-2 chromatography. Assay times were 20 […]"}}, "note": "“And” between values parts separate entries of the source, which are not always exact repeats. Equal values may be shown once. Residues, ends and D or L forms follow the SMILES beside them.", "data": [{"molecule": "CC(=O)N[C@H]1[C@@H](OP(=O)(O)OP(=O)(O)OC[C@H]2O[C@@H](n3ccc(=O)[nH]c3=O)[C@H](O)[C@@H]2O)O[C@H](CO)[C@H](O)[C@@H]1O", "note": "[UDP-GalNAc, UDP-N-acetylgalactosamine]", "values": [{"measurement": "Km", "setting": "[1]", "value": "~1.7 µM and 1.7 µM"}]}, {"molecule": "C[C@@H](O)[C@H](NC(=O)[C@@H](N)CCCNC(=N)N)C(=O)N1CCC[C@H]1C(=O)N1CCC[C@H]1C(=O)N1CCC[C@H]1C(=O)O", "note": "[RTPPP, Arg-Thr-Pro-Pro-Pro] (H-RTPPP-OH)", "values": [{"measurement": "Km", "setting": "[2]; 20 minutes, mean, S.E. (n = 3)", "value": "3300 ± 600", "unit": "µM"}, {"measurement": "Vmax /Km", "setting": "[2]; from Km and Vmax", "value": 183, "unit": "M⁻¹ s⁻¹"}]}, {"molecule": "Bovine cytochrome C: contains one Ser and eight Thr residues but no predicted potential sites [reference compound]", "values": [{"measurement": "Product formed, native acceptor", "setting": "[3]; acceptor 65 μM, enzyme approximately 65 mU/ml, 60 minutes, native", "value": "< 0.1", "unit": "nmol/min/mg"}, {"measurement": "Product formed, reduced and carboxymethylated acceptor", "setting": "[3]; acceptor 65 μM, enzyme approximately 65 mU/ml, 60 minutes, myelin basic protein was not reduced and carboxymethylated", "value": "< 0.1", "unit": "nmol/min/mg"}, {"measurement": "acceptor activity in words", "setting": "[3]; listed as bovine cytochrome C", "value": "is not an acceptor for the enzyme"}, {"measurement": "acceptor activity in words", "setting": "[3]; listed as cytochrome C", "value": "completely inactive as an acceptor"}]}, {"molecule": "CMW Pol-1: baculovirus containing an unrelated gene, human cytomegalovirus DNA polymerase gene [reference compound]", "values": [{"measurement": "Specific activity", "setting": "[4]; Sf9 cell lysates, 48 hours post infection", "value": 0.13, "unit": "Units/mg protein"}, {"measurement": "Relative rate", "setting": "[4]; relative to uninfected cells", "value": 0.8}]}, {"molecule": "N=C(N)NCCC[C@H](N)C(=O)N[C@@H](CO)C(=O)N1CCC[C@H]1C(=O)N1CCC[C@H]1C(=O)N1CCC[C@H]1C(=O)O", "note": "[RSPPP, Arg-Ser-Pro-Pro-Pro] (H-RSPPP-OH)", "values": [{"measurement": "slower glycosylation than PPAdSSdSAPG", "setting": "[5]; RSPPP vs PPAdSSdSAPG", "value": "three times slower than PPAdSSdSAPG"}, {"measurement": "Relative rate", "setting": "[5]; […]", "value": "1/751"}, {"measurement": "Product formed", "setting": "[5]; assay time 8 hours, 3.2 mM acceptor (RSPPP 3.7 mM)", "value": 0.67, "unit": "nmol/min/mg"}]}]}
